From a melting point compilation (Tetko et al.; mined from patent text by program, amines drawn as free bases though some values may be those of a salt)

SMILES | melting point [°C]
c1ccc(Cn2nc(-c3ccncc3)nc2-c2ccncc2)cc1 | 136 to 138
COc1cc2c(c(OC)c1)C1=C(CC2)C2=CCC(OC(C)=O)C2(C)CC1 (stereo not drawn) | 122 to 124
Nc1nc(CN2CCN(C(c3ccccc3)c3ccccc3)CC2)cs1 | 156 to 160
O=C1C2=C(CCCC2)C(=O)N1CCCCCCN1C(=O)C2=C(CCCC2)C1=O | 123 to 124
C=CCC(CC=C)(CC=C)C(=O)O[C@H]1C[C@H](O)C=C2C=C[C@H](C)[C@H](CC[C@@H]3C[C@@H](O)CC(=O)O3)[C@H]21 | 118 to 119
Cc1cc([N+](=O)[O-])cc2c1OCC2 | 80 to 81
CC(C)COc1ccc(-c2nc3cccc(C(=O)O)c3s2)cc1C#N | 268 to 270
Cn1c(=O)n(OCc2ccccc2)c(=O)c2cc(F)c(F)cc21 | 167 to 169
c1ccc(-c2nnc3cc(-c4ccsc4)c(OCc4ncn[nH]4)nn23)cc1 | 264 to 266
CCC(CC)[C@@H](CO)NS(=O)(=O)c1ccc(Cl)s1 | 115 to 118
Fc1cccc2onc(Nc3ccncc3)c12 | 160 to 161
COC(=O)c1cc(O)c(N=Nc2ccccc2)c(O)c1 | 216 to 218
N#Cc1ccc(NC(=O)c2ccc(C=O)cc2)cc1 | 236
CCCCCCCCCCNC(=O)c1cc(C(=O)NCCCCCCCCCC)cc(N(CCCC(=O)OCC)CCCC(=O)OCC)c1 | 75 to 77
O=C(CSCCCCOc1ccccc1)NNC(=O)c1ccc(O)cc1 | 113 to 115
COC(=O)CNc1cccc(C)c1 | 40
COc1cc(Br)c([N+](=O)[O-])cc1OC | 120 to 122
O=C(Nc1cccc(S(=O)(=O)N2CCOCC2)c1)c1cnn2c(C(F)(F)F)cc(-c3ccc(Cl)c(Cl)c3)nc12 | 239
CN(C(=S)N[C@@H](Cc1ccc(NC(=O)c2c(Cl)cncc2Cl)cc1)C(=O)O)c1ccccc1C(=O)NCC1CCCCC1 | 175
COc1ccc(N2CCC(c3c(N)nc(N)[nH]c3=O)CC2)cc1 | 308
O=C(O)CSC(CCCc1ccccc1)c1ccc(OCc2ccc3ccccc3n2)cc1 (stereo not drawn) | 118 to 119
COC(=O)COc1cccc2c(O)cccc12 | 177 to 179
CSc1c(C(Cc2ccccc2)C(=O)O)cc(C)c2c3ccccc3n(Cc3ccccc3)c12 (stereo not drawn) | 199 to 200
CCN(CC)CCNc1ccc2c3c(nn2CCN(CC)CC)-c2c(O)ccc(O)c2C(=O)c13 | 152
Cc1c(F)c(N)cc(Br)c1F | 68 to 68.5

SMILES | melting point [°C]
Cc1cc2ncnn2nc1OCC(C)(C)CCS(N)(=O)=O | 214 to 215
Cn1c(=O)c(-c2ccccc2Cl)cc2cnc(NC3C4CN(C(=O)Nc5ccc(CC(=O)O)cc5)CC43)nc21 (stereo not drawn) | 190 to 197
COc1cc(C(=O)Nc2ccccc2C(c2ccc(O)cc2)c2ccc(O)cc2)ccc1[N+](=O)[O-] | 129 to 131
COC(=O)c1cccc([N+](=O)[O-])c1I | 64 to 64.5
O=C(O)c1ccccc1Nc1cccc(/C=C/c2nc3ccccc3s2)c1 | 146 to 150
Cn1c(CC(=O)O)c(-c2ccccc2)c2cc(Cl)ccc21 | 141 to 142
Nc1ccc(C(=O)OCc2ccccc2)c(F)n1 | 92 to 94
CCOC(=O)C1=NOC2(CCC(C(C)(C)CC)CC2)C1 (stereo not drawn) | 82 to 87
CC(Cc1cccc(Cl)c1)(NC=O)c1ccccc1 (stereo not drawn) | 108 to 109
CC(C(=O)N(C)O)c1ccc(-c2ccccc2)c(F)c1 (stereo not drawn) | 125 to 126
COC(=O)C12COc3cc(C(F)(F)F)ccc3C1=NN(C(=O)Nc1ccc(Cl)cn1)C2 (stereo not drawn) | 196 to 198
CC(C)N(Cc1ccc(C(F)(F)F)cc1)C(=O)C(Cl)Cl | 92 to 93
CC(=O)NC1=NN(c2ccccc2)CC1 | 190 to 191
CC1CCN(CCOc2ccc(NC(=O)CC(=O)c3ccc(-c4ccccc4)cc3)cc2Cl)CC1 | 135 to 139
CN1C(=O)C(c2ccccc2)=C(c2cn(C)c3ccccc23)C1=O | 242 to 246
CC(C)(O)c1onc(-c2ccccc2Cl)c1C(=O)c1nnn(Cc2cc(F)cc(C(F)(F)F)c2)c1-c1cccnc1 | 180
COc1cc(C(=O)NS(=O)(=O)c2ccccc2C)ccc1Cn1ncc2ccc(NC(=O)CC3CCCC3)cc21 | 184 to 185
Cc1cc(Cl)ccc1-c1cc(Cl)cc2c1NC(CN)CO2 (stereo not drawn) | 102
CCOC(=O)CC(NS(=O)(=O)c1cccc(-c2cccc(NC(=NC#N)NC3CC3)c2)c1)c1ccccc1 (stereo not drawn) | 82
CCOP(=O)(CNC(Cc1ccc(Cl)cc1)c1cc(C(C)(C)C)c(O)c(C(C)(C)C)c1)OCC (stereo not drawn) | 120 to 121
COC(=O)c1ccc(C(=O)NS(=O)(=O)c2ccc(CCNC(=O)COc3ccccc3)cc2)cn1 | 201 to 203
CCOC(=O)CCCNCc1nn2c(-c3ccc(OC)cc3)nnc2c2ccccc12 | 103 to 105
Brc1ccc(OCc2ccccc2)cc1OCc1ccccc1 | 37 to 38
CC(COc1ccccc1)C1SC(=O)NC1=O (stereo not drawn) | 106 to 108
Cc1ccc(-c2nc(CN3CCN(C(c4ccccc4)c4ccccc4)CC3)c(C)[nH]2)cc1 | 238

SMILES | melting point [°C]
CC(=O)N1CCN=C1Nc1cc(C)nn1C(C)C | 145 to 147
CC=CC(=O)C1=C(C)C(=O)CCC1(C)C | 68 to 69
CC(C)(C)OC(=O)c1ncn2c1CN(C(=O)N1CCCC1)c1c(F)cccc1-2 | 214
Nc1ncc(-c2noc(-c3cnn4c(C(F)(F)F)cc(-c5ccc(Cl)c(Cl)c5)nc34)n2)cn1 | 300
Brc1ccc2[nH]cc(C3=CCNCC3)c2c1 | 202 to 204
CCCCC(Cn1cncn1)(NC(C)=O)c1ccc(Cl)cc1 (stereo not drawn) | 178 to 179
Cc1nnc(-c2ccc3occ(-c4ccc(SCc5ccccc5C#N)cc4)c3c2)o1 | 141 to 142
Cc1ccc2cccc3c2c1N(Cc1ccccc1)C3=NCCCn1ccnc1 | 107 to 109
Cn1cnc2cc(C(c3ccccc3)n3ccnc3)ccc21 (stereo not drawn) | 139
O=[N+]([O-])c1ccc(CCc2nnco2)cc1 | 93 to 94
CN(C)c1nc2cc(Br)ccn2n1 | 133 to 134
O=[N+]([O-])c1cccc(/C=C/c2csc(C3CCC3)n2)c1 | 112 to 115
CC(C)CC(=O)Nc1cccc(-c2ccnc3c(-c4cccc5cccnc45)cnn23)c1 | 96 to 99
Cc1oc(-c2ccccc2)nc1COc1ccc(COc2ncccc2C#N)cc1 | 119 to 120
CCN1C(=O)c2cnc(-c3ccccc3)nc2Nc2ccccc21 | 198 to 199
COCC1COc2cc3ncnc(Nc4cccc(Cl)c4)c3cc2O1 (stereo not drawn) | 277 to 282
O=C(O)c1ccc(COCc2csc3nc(C(=O)NCc4cccc(Br)c4)[nH]c(=O)c23)cc1 | 231 to 233
COc1cc(Br)cc2c(N(C)C)cc(C)nc12 | 115 to 117
CS(=O)(=O)c1cccc(CNC(=O)c2nc3scc(COCc4ccc(C(=O)O)cc4)c3c(=O)[nH]2)c1 | 265 to 267
O=C(CNc1ccc2[nH]c(=O)oc2c1)N1CCC(Oc2ccccc2)CC1 | 220 to 223
CCC1(CC)C(=O)N(c2ccccc2)CC(C)(C)N1OC(C)c1ccccc1 (stereo not drawn) | 78 to 81
Cc1noc(C)c1CN1CC2(COc3cc4c(cc32)OCO4)c2ccccc21 (stereo not drawn) | 165 to 167
Nc1ccccc1C(=O)NCCN1CCC(n2c(=O)[nH]c3cc(Cl)ccc32)CC1 | 227
CC(=O)O/N=C1\CCc2ccccc2C1=Cc1ccc(S(C)(=O)=O)cc1 | 70 to 73
CCC(=O)Oc1n[nH]c(=O)c2nc3cc(Cl)ccc3c(O)c12 | 275 to 278

SMILES | melting point [°C]
NC(=O)c1cccc(-c2ccc(Cl)c3cc(Cc4ccc(F)c(F)c4)sc23)c1 | 185 to 186
CC(C)(C)ON=C1CCC(NC(=O)N2CCn3c(Cl)c(-c4cccc(F)c4)c(C(N)=O)c3C2)CC1 (stereo not drawn) | 195 to 198
Cn1nc(-c2nc(OCC(N)=O)c(Cl)cc2F)c(Cl)c1OC(F)F | 178 to 180
COCCOc1ccc(COC(=O)NS(=O)(=O)c2ccc(Cl)cc2)c(Oc2ncc(C(F)(F)F)cc2Cl)c1 | 112 to 115
CCSc1c(O[C@@H]2CCC[C@H](N)C2)ccc2[nH]ncc12 (relative stereo) | 110
CCOc1ccc(Nc2ncc(C(=O)O)c(=O)[nH]2)cc1 | 250 to 252
COc1ccc(I)c(OCC(O)CNCCc2ccc(OC)c(OC)c2)c1 (stereo not drawn) | 83 to 88
CSc1nn2c(N3CCN(C)CC3)nc(C)nc2c1S(=O)(=O)c1ccccc1 | 169 to 171
CC(C)c1ccccc1S(=O)(=O)c1ccc(OCCCNC(C)(C)C)cc1 | 116
COC(=O)c1ccc(CO)cc1SCc1ccccc1 | 89.5 to 92
OC1CCN(C(c2ccccc2)(c2ccccc2)c2ccccc2)CC1 | 157 to 158
CC(C)(C)c1cc(SC#N)cc(C(C)(C)C)c1O | 61.5 to 63
CC(=O)Nc1c(-c2cc(Cl)ccc2O)c2cc(C(F)(F)F)ccc2[nH]c1=O | 222 to 224
CCOC(=O)c1sc2ccc(Br)cc2c1C | 87 to 88
CC(=O)SCSc1nnn[nH]1 | 90
O=C1CC(Cl)C(=O)N1c1ccccc1 (stereo not drawn) | 117 to 118
CCc1nc2cc(C(F)(F)F)c(Cl)cc2n1-c1ccc(CCOC(=O)NS(=O)(=O)c2cn(C)cn2)cc1 | 204
CCN(CC)c1ccc(C2(c3ccc(N(C)C)cc3)OC(=O)c3ccccc32)c(N(CC)CC)c1 (stereo not drawn) | 117 to 119
CC(=O)c1c(-c2ccncc2)[nH]c(-c2ccnc3ccccc23)c1C | 237 to 239
CN1C2=C(CSC2)C(=O)Nc2cccnc21 | 240 to 241
Cn1cncc1COCC(O)c1ccccc1 (stereo not drawn) | 102 to 105
CC(C)c1cccc(C(C)C)c1NC(=O)NCC1(c2ccccc2)CC1 | 138 to 142
CCN(CC)S(=O)(=O)c1ccc(C(CC2CCCC2)C(=O)Nc2nc3ccc(OC)nc3s2)cc1 (stereo not drawn) | 150 to 152
